In patent publication US20070167387A1, “Novel artificial nucleic acids of n-o bond crosslinkage type” (TAKESHI IMANISHI, priority 2003, published 2007):

Legend:
Type in all cases: binding
[1] = test system: dsDNA 5′-d(GCT AAAAAGAAAGAGAGATCG)-3′ / 3′-d(CGATTTTTCTTTCTCTCTAGC)-5′; experiment: Tm measurement, triplex-forming capacity with dsDNA (Table 5-1); details: 140 mM KCl, 7 mM Na2HPO4 buffer (pH 7.0), each strand 1.5 μM
Procedure: (§1) Sample solutions (500 μL) with end concentrations of NaCl 100 mM, sodium phosphate buffer (pH 7.2) 10 mM, antisense strand 4 μM, and sense strand 4 μM were bathed in boiling water, and cooled down to room temperature over the course of 10 hours. A stream of nitrogen was flowed through a cell chamber of a spectrophotometer (Beckman, DU-650) to prevent dew formation, and the sample solutions were gradually cooled down to 5° C. Further, the sample solutions were maintained at 10° C. for 20 minutes, and then their measurements were started. The temperature was raised up to 90° C. at a rate of 0.5° C./min, and the ultraviolet absorption at 260 nm was measured.
(§2) In connection with the oligonucleotide analogues (6) to (11) and (18) to (21) synthesized in the Examples, the triplex-forming capacity with the target double-stranded DNA's indicated below was investigated by the same method as in Experimental Example 1. The salt concentrations and pH during measurement complied with the conditions described below the respective tables.

[2] = test system: dsDNA 5′-d(GCTGCT AAAAAGAAAGAGAGATCGTCG)-3′ / 3′-d(CGACGATTTTTCTTTCTCTCTAGCAGC)-5′; experiment: Tm measurement, triplex-forming capacity with dsDNA, with MgCl2 (Table 5-2); details: 140 mM KCl, 10 mM MgCl2, 7 mM Na2HPO4 buffer (pH 7.0), each strand 1.5 μM
Procedure: as §1, §2

[3] = test system: dsDNA 5′-d([…])-3′ / 3′-d(CGATTTTTCTNTCTCTCTAGC)-5′; experiment: Sequence selective triplex-formation, match and mismatch dsDNA (Table 5-3); details: for Tm: 140 mM KCl, 7 mM sodium phosphate buffer (pH 7.0), each strand 1.5 μM
Procedure: as §1, §2

[4] = test system: DNA strand (5′-AGCAAAAAACGC-3′); experiment: Melting point (Tm) measurement, duplex-forming capacity with DNA strand; details: 100 mM NaCl, 10 mM Na2HPO4 buffer (pH7.2), [strand] = 4 μM, average of 3 or more experiments
Procedure: (§3) The oligonucleotide analogues (1) to (5) and (13) to (17) synthesized in the Examples (i.e., antisense strands), and a sense strand of a natural DNA or RNA oligonucleotide were annealed. The melting points (Tm) of the annealing products were measured to investigate the duplex-forming capacity of the antisense strands.
as §1

[5] = test system: RNA strand (5′-AGCAAAAAACGC-3′); experiment: Melting point (Tm) measurement, duplex-forming capacity with RNA strand; details: 100 mM NaCl, 10 mM Na2HPO4 buffer (pH7.2), [strand] = 4 μM, average of 3 or more experiments
Procedure: as §3, §1

Substance	Tm [1]	ΔTm/modification [1]	Tm [2]	ΔTm/modification [2]	also measured
5′-TTTTY^mCTYT^mCY^mCT^mCT-3′ [Oligonucleotide analogue (19)]	60 °C	+9.0 °C	73 °C	+10.0 °C	
5′-XTXTX^mCXTX^mCX^mCX^mCT-3′ [Oligonucleotide analogue (9)]	59 °C	+3.7 °C	> 80 °C	> +5 °C	
5′-TTTTT^mCTTT^mCT^mCT^mCT-3′ (TTTTTCTTTCTCTCT; all C 5-methyl, sugars by position and backbone not given here) [unmodified triplex-forming oligonucleotide, Z = natural T, reference compound]	33 °C		43 °C		Tm ([3]; M·N = A·T (match)): 43 °C; ΔTm = Tm(mismatch) − Tm(match) ([3]; M·N = C·G): −18 °C; Tm ([3]; M·N = C·G (mismatch)): 25 °C; ΔTm = Tm(mismatch) − Tm(match) ([3]; M·N = G·C): −22 °C; Tm ([3]; M·N = G·C (mismatch)): 21 °C; ΔTm = Tm(mismatch) − Tm(match) ([3]; M·N = T·A): −25 °C; Tm ([3]; M·N = T·A (mismatch)): 18 °C
5′-GCGTTTTTTGCT-3′ (unmodified DNA) [natural antisense strand, reference compound]					Tm [4]: 50 °C; Tm [5]: 45 °C
5′-YTYTY^mCYTY^mCY^mCY^mCT-3′ [Oligonucleotide analogue (21)]	78 °C	+6.4 °C	> 80 °C	> +5 °C	
5′-TXTTX^mCTXT^mCX^mCTX*T-3′ [Oligonucleotide analogue (10)]	50 °C	+3.4 °C	63 °C	+4.0 °C	
5′-TTTTX^mCTXT^mCX^mCT^mCT-3′ [Oligonucleotide analogue (7)]	47 °C	+4.6 °C	61 °C	+6.0 °C	
5′-TTTTT^mCYYY^mCT^mCT^mCT-3′ [Oligonucleotide analogue (20)]	59 °C	+8.7 °C	71 °C	+9.3 °C	
5′-XTTTX^mCTTX^mCT^mCX^mCT-3′ [Oligonucleotide analogue (11)]	45 °C	+3.0 °C	59 °C	+4.0 °C	
